Where two headings read alike, the source gives them in different places.
Experiment: Phase 1 single-dose plasma pharmacokinetics in subjects with normal hepatic function, mild or moderate hepatic impairment
Type: in vivo, human
Details: for half-life / Tmax / concentration at 0.5 h / concentration at 1 h / concentration at 2 h / concentration at 3 h / concentration at 4 h / concentration at 6 h / concentration at 8 h / concentration at 12 h / concentration at 16 h / concentration at 24 h / concentration at 36 h / concentration at 48 h / AUC(0-t) / AUC(0-inf) / Cmax / Vd/F: human, plasma, po, 200 mg, 200 mg single oral dose
Text: Patients: 27 subjects were enrolled within the following groups based on their Child-Pugh (CP) classification score: • Group 1: Matched-control healthy subjects with normal hepatic function; • Group 2: Subjects with mild hepatic impairment (CP Class A, score of 5 or 6); • Group 3: Subjects with moderate hepatic impairment (CP Class B, score of 7 to 9).
A parallel design strategy was adopted for the hepatic impairment groups. Each matched-control healthy subject (Group 1) was enrolled following the enrollment of a mild and/or moderate hepatic impairment subject and was demographically matched by age (±10 years), BMI (±20%), and sex to the enrolled hepatic impairment subject(s). Subjects with normal hepatic function were not matched to more than 1 hepatically-impaired subject within an impairment group; however, subjects with normal hepatic function could be matched to 1 subject from more than 1 hepatic impairment group.
Other noncompartmental parameters could be reported.
The paired t-test was performed separately for each hepatic impairment group and the corresponding matched healthy controls. Estimates of geometric mean ratios in primary PK parameters between each level of impaired hepatic function versus the matched healthy controls were presented along with the corresponding 90% confidence intervals (CIs) for the geometric mean ratios. The p-value assessing the difference between each impairment group and the healthy control group was presented.
The PK analysis was conducted by Covance Early Clinical Biometrics using WinNonlin Version 8.1.

[1] = Moderate Hepatic Impairment, read-out: Plasma concentration, Arithmetic Mean
[2] = Moderate Hepatic Impairment, read-out: Plasma concentration, Geometric Mean
[3] = Moderate Hepatic Impairment, read-out: Plasma concentration, Median
[4] = Normal Hepatic Function, read-out: Plasma concentration, Arithmetic Mean
[5] = Normal Hepatic Function, read-out: Plasma concentration, Geometric Mean
[6] = Normal Hepatic Function, read-out: Plasma concentration, Median

N#CC1(c2ccc(NC(=O)c3cccnc3NCc3ccncc3)cc2)CCCC1 [Rivoceranib, N-[4-(1-cyanocyclopentyl)phenyl]-2-{[(pyridin-4-yl)methyl]amino} pyridine-3-carboxamide]
half-life (Moderate Hepatic Impairment, read-out: t1/2, Geometric Mean (converted)): 18.4 h | half-life (Moderate Hepatic Impairment, read-out: t1/2, Median (converted)): 18.2 h | Tmax (Moderate Hepatic Impairment, read-out: tmax, Arithmetic Mean): 2 h | Tmax (Moderate Hepatic Impairment, read-out: tmax, Geometric Mean): 1.8 h | Tmax (Moderate Hepatic Impairment, read-out: tmax, Median): 2 h | concentration at 0.5 h [1]: 115 ng/mL | concentration at 0.5 h [2]: 57.1 ng/mL | concentration at 0.5 h [3]: 92.2 ng/mL | concentration at 1 h [1]: 195 ng/mL | concentration at 1 h [2]: 140 ng/mL | concentration at 1 h [3]: 154 ng/mL | concentration at 2 h [1]: 190 ng/mL | concentration at 2 h [2]: 178 ng/mL | concentration at 2 h [3]: 170 ng/mL | concentration at 3 h [1]: 166 ng/mL | concentration at 3 h [2]: 154 ng/mL | concentration at 3 h [3]: 162 ng/mL | concentration at 4 h [1]: 134 ng/mL | concentration at 4 h [2]: 121 ng/mL | concentration at 4 h [3]: 132 ng/mL | concentration at 6 h [1]: 106 ng/mL | concentration at 6 h [2]: 96.8 ng/mL | concentration at 6 h [3]: 93.8 ng/mL | concentration at 8 h [1]: 85.5 ng/mL | concentration at 8 h [2]: 80.3 ng/mL | concentration at 8 h [3]: 85 ng/mL | concentration at 12 h [1]: 62.3 ng/mL | concentration at 12 h [2]: 58.2 ng/mL | concentration at 12 h [3]: 54.2 ng/mL | concentration at 16 h [1]: 52.6 ng/mL | concentration at 16 h [2]: 45.3 ng/mL | concentration at 16 h [3]: 43.4 ng/mL | concentration at 24 h [1]: 44.3 ng/mL | concentration at 24 h [2]: 38.7 ng/mL | concentration at 24 h [3]: 36.5 ng/mL | concentration at 36 h [1]: 24 ng/mL | concentration at 36 h [2]: 20.9 ng/mL | concentration at 36 h [3]: 24.9 ng/mL | concentration at 48 h [1]: 17.4 ng/mL | concentration at 48 h [2]: 18.1 ng/mL | concentration at 48 h [3]: 15.5 ng/mL | AUC(0-t) (Normal Hepatic Function, read-out: AUC0-t, Arithmetic Mean): 2690 ng·h/mL | AUC(0-t) (Normal Hepatic Function, read-out: AUC0-t, Geometric Mean): 2560 ng·h/mL | AUC(0-t) (Normal Hepatic Function, read-out: AUC0-t, Median): 2780 ng·h/mL | AUC(0-inf) (Normal Hepatic Function, read-out: AUC0-∞, Arithmetic Mean): 3180 ng·h/mL | AUC(0-inf) (Normal Hepatic Function, read-out: AUC0-∞, Geometric Mean): 3050 ng·h/mL | AUC(0-inf) (Normal Hepatic Function, read-out: AUC0-∞, Median): 2880 ng·h/mL | Cmax (Normal Hepatic Function, read-out: Cmax, Arithmetic Mean): 271 ng/mL | Cmax (Normal Hepatic Function, read-out: Cmax, Geometric Mean): 250 ng/mL | Cmax (Normal Hepatic Function, read-out: Cmax, Median): 270 ng/mL | Vd/F (Normal Hepatic Function, read-out: VZ/F, Arithmetic Mean): 1340 L | Vd/F (Normal Hepatic Function, read-out: VZ/F, Geometric Mean): 1310 L | Vd/F (Normal Hepatic Function, read-out: VZ/F, Median): 1190 L | half-life (Normal Hepatic Function, read-out: t1/2, Arithmetic Mean (converted)): 17.9 ± 8.6 h | half-life (Normal Hepatic Function, read-out: t1/2, Geometric Mean (converted)): 16.3 h | half-life (Normal Hepatic Function, read-out: t1/2, Median (converted)): 16.9 h | Tmax (Normal Hepatic Function, read-out: tmax, Arithmetic Mean): 2.5 h | Tmax (Normal Hepatic Function, read-out: tmax, Geometric Mean): 2.2 h | Tmax (Normal Hepatic Function, read-out: tmax, Median): 2 h | concentration at 0.5 h [4]: 17.7 ng/mL | concentration at 0.5 h [5]: 15.2 ng/mL | concentration at 0.5 h [6]: 6.8 ng/mL | concentration at 1 h [4]: 136 ng/mL | concentration at 1 h [5]: 92.9 ng/mL | concentration at 1 h [6]: 74.4 ng/mL | concentration at 2 h [4]: 226 ng/mL | concentration at 2 h [5]: 204 ng/mL | concentration at 2 h [6]: 236 ng/mL | concentration at 3 h [4]: 216 ng/mL | concentration at 3 h [5]: 192 ng/mL | concentration at 3 h [6]: 199 ng/mL | concentration at 4 h [4]: 164 ng/mL | concentration at 4 h [5]: 149 ng/mL | concentration at 4 h [6]: 147 ng/mL | concentration at 6 h [4]: 131 ng/mL | concentration at 6 h [5]: 117 ng/mL | concentration at 6 h [6]: 106 ng/mL | concentration at 8 h [4]: 99.4 ng/mL | concentration at 8 h [5]: 89.5 ng/mL | concentration at 8 h [6]: 81 ng/mL | concentration at 12 h [4]: 67.8 ng/mL | concentration at 12 h [5]: 63.2 ng/mL | concentration at 12 h [6]: 61.9 ng/mL | concentration at 16 h [4]: 48.8 ng/mL | concentration at 16 h [5]: 45.7 ng/mL | concentration at 16 h [6]: 49.7 ng/mL | concentration at 24 h [4]: 43.2 ng/mL | concentration at 24 h [5]: 40.4 ng/mL | concentration at 24 h [6]: 43 ng/mL | concentration at 36 h [4]: 23.9 ng/mL | concentration at 36 h [5]: 21.3 ng/mL | concentration at 36 h [6]: 24.2 ng/mL | concentration at 48 h [4]: 14.9 ng/mL | concentration at 48 h [5]: 14.8 ng/mL | concentration at 48 h [6]: 15.9 ng/mL | exposure in mild or moderate hepatic impairment compared to normal hepatic function (same amount of rivoceranib): do not have a statistically significant difference in exposure

Reference: patent US20260207572A1, “METHODS AND COMPOSITIONS FOR TREATMENT OF SUBJECTS WITH HEPATIC IMPAIRMENTS” (ELEVAR THERAPEUTICS, INC., priority 2022, published 2026)
